Measured values from PubChem BioAssay (NCI).
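These data come from cells grown in 96-well plates and exposed to compound for 48 hours at five concentrations. Abbreviation: GI50, concentration required for 50% inhibition of growth. TGI denotes the concentration required for complete inhibition of growth.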

Tests used:
Experiment in all cases: DTP human tumour cell line panel, 48 h
[1] = tested on: A498 renal
[2] = tested on: T-47D breast
[3] = tested on: MDA-MB-435
[4] = tested on: DU-145 prostate
[5] = tested on: OVCAR-5 ovarian
[6] = tested on: HCT-15 colon
[7] = tested on: HOP-92 NSCLC
[8] = tested on: SK-OV-3 ovarian
[9] = tested on: MOLT-4 leukemia
[10] = tested on: HT29 colon

O=c1[nH]c(=O)n(C2CC(O)C(CO)O2)cc1NN=NCCCc1ccccc1 (stereo unspecified)
TGI [1]: > 100 µM | TGI [2]: > 100 µM | TGI [3]: > 100 µM | TGI [4]: > 100 µM | TGI [5]: > 100 µM | TGI [6]: > 100 µM | TGI [7]: > 100 µM | TGI [8]: > 100 µM | TGI [9]: > 100 µM | TGI [10]: > 100 µM

CCCCCCCC(CC(=O)NC(CO)C(=O)NC(CO)CC(C)C)OC(=O)CC(CCCCCCC)OC(=O)CC(CCCCCCC)OC1OC(C)C(O)C(OC2OC(C)C(O)C(O)C2OC(C)=O)C1O (stereo unspecified)
TGI [1]: 29.4 µM | TGI [2]: 21 µM | TGI [3]: 13.8 µM | TGI [4]: 22.4 µM | TGI [5]: 21.9 µM | TGI [7]: 22 µM | TGI [8]: 30.3 µM | TGI [9]: 10.5 µM | TGI [10]: 13.7 µM

O=c1sc2c(s1)-c1sc(=O)sc1SS2
TGI [1]: > 62.2 µM | TGI [2]: > 100 µM | TGI [3]: > 100 µM | TGI [4]: > 89.8 µM | TGI [5]: > 75.3 µM | TGI [6]: > 31.6 µM | TGI [7]: > 100 µM | TGI [8]: > 100 µM | TGI [9]: > 100 µM | TGI [10]: > 56.9 µM

COc1ccc(/C=C2\CCS(=O)(=O)c3ccccc3C2=O)cc1OC
TGI [1]: 73.7 µM | TGI [2]: > 100 µM | TGI [3]: > 100 µM | TGI [4]: > 100 µM | TGI [5]: > 100 µM | TGI [6]: 50.4 µM | TGI [7]: > 100 µM | TGI [8]: > 100 µM | TGI [9]: > 100 µM | TGI [10]: > 100 µM

O=C(CCCCCCCCC(=O)N1C(=O)CC(=O)N(c2ccccc2)C1=S)N1C(=O)CC(=O)N(c2ccccc2)C1=S
TGI [1]: > 100 µM | TGI [2]: > 100 µM | TGI [3]: > 100 µM | TGI [4]: > 100 µM | TGI [5]: > 100 µM | TGI [6]: > 100 µM | TGI [7]: > 100 µM | TGI [8]: > 100 µM | TGI [9]: > 100 µM | TGI [10]: > 100 µM

CCO[C@@]1(COCc2ccccc2)OC(=O)C[C@@H]1N1C(=O)OC[C@@H]1c1ccccc1
TGI [1]: > 100 µM | TGI [2]: > 100 µM | TGI [3]: > 100 µM | TGI [4]: > 100 µM | TGI [5]: > 100 µM | TGI [6]: > 100 µM | TGI [7]: > 100 µM | TGI [8]: > 100 µM | TGI [9]: > 100 µM | TGI [10]: > 100 µM

COc1cc2oc(=O)cc(C)c2cc1O
TGI [1]: > 100 µM | TGI [2]: > 100 µM | TGI [3]: > 100 µM | TGI [4]: > 100 µM | TGI [5]: > 100 µM | TGI [6]: > 100 µM | TGI [7]: > 100 µM | TGI [9]: > 100 µM | TGI [10]: > 100 µM

C/C(=C\c1ccccc1)C(=O)NCc1ccc(C(=O)NCCc2ccccc2)cc1
TGI [1]: > 100 µM | TGI [2]: > 100 µM | TGI [3]: > 100 µM | TGI [4]: > 100 µM | TGI [5]: > 100 µM | TGI [6]: > 100 µM | TGI [7]: 99.1 µM | TGI [8]: 51.8 µM | TGI [9]: > 100 µM | TGI [10]: 6.81 µM

O=C1c2ccccc2C(=O)c2sc(Nc3ccccc3C(F)(F)F)nc21
TGI [1]: 28.9 µM | TGI [2]: 44.5 µM | TGI [3]: 16 µM | TGI [4]: 31.7 µM | TGI [5]: 44.6 µM | TGI [6]: > 100 µM | TGI [7]: 23.7 µM | TGI [8]: 30.8 µM | TGI [9]: 85.1 µM

C(=N\Nc1ccc(-c2nc3ccccc3[nH]2)cc1)/c1c(-c2ccc(Cc3ccccc3)cc2)[nH]c2ccccc12
TGI [1]: 33.3 µM | TGI [2]: 98.4 µM | TGI [3]: > 27.4 µM | TGI [4]: > 80.8 µM | TGI [5]: > 100 µM | TGI [6]: > 100 µM | TGI [7]: 25.7 µM | TGI [8]: > 100 µM | TGI [9]: > 37.3 µM | TGI [10]: > 57.9 µM

O=[N+]([O-])c1ccc(N/N=C/CC(O)(C(F)(F)F)C(F)(F)F)c([N+](=O)[O-])c1
TGI [1]: > 10 µM | TGI [2]: > 10 µM | TGI [3]: > 10 µM | TGI [4]: > 10 µM | TGI [6]: > 10 µM | TGI [7]: 6.59 µM | TGI [8]: > 10 µM | TGI [9]: > 10 µM | TGI [10]: > 10 µM

CC(C)CCCC(C)[C@H]1CC[C@H]2[C@@H]3CC[C@H]4C[C@@H](CCC=C(c5cc(Cl)c(O)c(C(=O)OC(C)C)c5)c5cc(Cl)c(O)c(C(=O)OC(C)C)c5)CC[C@]4(C)[C@H]3CC[C@]12C (stereo partly specified)
TGI [1]: > 50 µM | TGI [2]: > 50 µM | TGI [3]: > 50 µM | TGI [4]: > 50 µM | TGI [5]: > 50 µM | TGI [6]: > 50 µM | TGI [7]: > 50 µM | TGI [8]: > 50 µM | TGI [9]: > 50 µM | TGI [10]: > 50 µM

CC1(C)C(CCO)CC1n1cc(I)c(=O)[nH]c1=O (stereo unspecified)
TGI [1]: > 100 µM | TGI [2]: > 100 µM | TGI [3]: > 100 µM | TGI [4]: > 100 µM | TGI [5]: > 100 µM | TGI [6]: > 100 µM | TGI [7]: > 100 µM | TGI [8]: > 100 µM | TGI [9]: > 100 µM

COC1CC(OC2C(C)OC(OC3C(C)OC(OC4C(O)CC(O[C@H]5CC[C@@]6(C)C(=CC[C@]7(O)[C@@H]6C[C@@H](OC(C)=O)[C@@]6(C)[C@]7(O)CC[C@@]6(O)C(C)=O)C5)OC4C)CC3OC)CC2OC)OC(C)C1O (stereo partly specified)
TGI [2]: > 12.5 µM | TGI [3]: > 12.5 µM | TGI [4]: > 12.5 µM | TGI [5]: > 12.5 µM | TGI [6]: > 12.5 µM | TGI [7]: > 12.5 µM | TGI [8]: > 12.5 µM | TGI [9]: > 12.5 µM | TGI [10]: > 12.5 µM

C=C1C(=O)O[C@H]2[C@H]3O[C@@H](C[C@@H]12)[C@@]1(C)CC[C@H](O1)[C@H](C)CCC[C@H]3C
TGI [1]: 3.17 µM | TGI [2]: 5.53 µM | TGI [3]: 2.61 µM | TGI [4]: 2.86 µM | TGI [5]: 3.38 µM | TGI [6]: 3.55 µM | TGI [7]: 3.48 µM | TGI [8]: 19.5 µM | TGI [10]: 3.04 µM

Nc1ccccc1.[C-]#[O+].[C-]#[O+].[C-]#[O+].[C-]#[O+].[C-]#[O+].[Cr]
GI50 [1]: 3 µM | TGI [1]: 8.28 µM | GI50 [2]: 2.62 µM | TGI [2]: > 10 µM | GI50 [3]: 3.67 µM | TGI [3]: > 10 µM | GI50 [4]: > 10 µM | TGI [4]: > 10 µM | GI50 [5]: > 10 µM | TGI [5]: > 10 µM | GI50 [6]: 4.99 µM | TGI [6]: > 10 µM | GI50 [8]: 5.66 µM | TGI [8]: > 10 µM | GI50 [9]: 3.26 µM | TGI [9]: > 10 µM | GI50 [10]: > 10 µM | TGI [10]: > 10 µM

CSC1C(=O)Nc2ccc3ccccc3c21 (stereo unspecified)
TGI [2]: 29.4 µM | TGI [3]: > 100 µM | TGI [4]: > 100 µM | TGI [5]: > 100 µM | TGI [6]: 38.4 µM | TGI [7]: 40.6 µM | TGI [8]: > 100 µM | TGI [9]: > 100 µM | TGI [10]: > 100 µM

CC1=NN(C(=O)CC(=O)Nc2ccccc2Cl)C(=O)C1N=Nc1ccc(S(=O)(=O)c2ccc(N=NC3C(=O)N(C(=O)CC(=O)Nc4ccccc4Cl)N=C3C)cc2)cc1 (stereo unspecified)
TGI [2]: > 100 µM | TGI [3]: > 100 µM | TGI [4]: > 100 µM | TGI [5]: > 100 µM | TGI [6]: > 100 µM | TGI [7]: > 100 µM | TGI [8]: > 100 µM | TGI [9]: > 100 µM | TGI [10]: > 100 µM

NNc1nncc2[nH]cnc12
TGI [1]: > 100 µM | TGI [2]: > 100 µM | TGI [3]: > 100 µM | TGI [4]: > 100 µM | TGI [5]: > 100 µM | TGI [6]: > 100 µM | TGI [9]: > 100 µM | TGI [10]: > 100 µM

COc1cc(C2=NNC(=O)c3ccccc3N2c2nc(-c3cccs3)nc3ccc(Br)cc23)cc(OC)c1OC
TGI [1]: 91.9 µM | TGI [2]: > 100 µM | TGI [3]: 68.5 µM | TGI [4]: 87.9 µM | TGI [5]: > 100 µM | TGI [6]: 24 µM | TGI [7]: 27.7 µM | TGI [8]: > 100 µM | TGI [10]: 35.9 µM
